Target: T1, ΔF508-CFTR (Homo sapiens, UniProt P13569, DEL508-508)
T1 construct: expressed in transfected cells
Assay: Membrane potential optical assay (FRET voltage-sensor dyes, VIPR), identification of potentiator compounds
Type: cell-based
Settings: Table 3, assay not given; for Emax: read-out: % Activity (% Efficacy, relative efficacy)
Procedure, shortened: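 Potentiator screen measured membrane potential via FRET between CC2-DMPE donor and DiSBAC2(3), read on VIPR II. Compound went in with the first addition of chloride-free gluconate bath; cells were ΔF508-CFTR-expressing NIH3T3 mouse fibroblasts, temperature-corrected at 27 °C for 24 h.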

T1 sequence (P13569 with tags, fused parts or gaps DEL508-508): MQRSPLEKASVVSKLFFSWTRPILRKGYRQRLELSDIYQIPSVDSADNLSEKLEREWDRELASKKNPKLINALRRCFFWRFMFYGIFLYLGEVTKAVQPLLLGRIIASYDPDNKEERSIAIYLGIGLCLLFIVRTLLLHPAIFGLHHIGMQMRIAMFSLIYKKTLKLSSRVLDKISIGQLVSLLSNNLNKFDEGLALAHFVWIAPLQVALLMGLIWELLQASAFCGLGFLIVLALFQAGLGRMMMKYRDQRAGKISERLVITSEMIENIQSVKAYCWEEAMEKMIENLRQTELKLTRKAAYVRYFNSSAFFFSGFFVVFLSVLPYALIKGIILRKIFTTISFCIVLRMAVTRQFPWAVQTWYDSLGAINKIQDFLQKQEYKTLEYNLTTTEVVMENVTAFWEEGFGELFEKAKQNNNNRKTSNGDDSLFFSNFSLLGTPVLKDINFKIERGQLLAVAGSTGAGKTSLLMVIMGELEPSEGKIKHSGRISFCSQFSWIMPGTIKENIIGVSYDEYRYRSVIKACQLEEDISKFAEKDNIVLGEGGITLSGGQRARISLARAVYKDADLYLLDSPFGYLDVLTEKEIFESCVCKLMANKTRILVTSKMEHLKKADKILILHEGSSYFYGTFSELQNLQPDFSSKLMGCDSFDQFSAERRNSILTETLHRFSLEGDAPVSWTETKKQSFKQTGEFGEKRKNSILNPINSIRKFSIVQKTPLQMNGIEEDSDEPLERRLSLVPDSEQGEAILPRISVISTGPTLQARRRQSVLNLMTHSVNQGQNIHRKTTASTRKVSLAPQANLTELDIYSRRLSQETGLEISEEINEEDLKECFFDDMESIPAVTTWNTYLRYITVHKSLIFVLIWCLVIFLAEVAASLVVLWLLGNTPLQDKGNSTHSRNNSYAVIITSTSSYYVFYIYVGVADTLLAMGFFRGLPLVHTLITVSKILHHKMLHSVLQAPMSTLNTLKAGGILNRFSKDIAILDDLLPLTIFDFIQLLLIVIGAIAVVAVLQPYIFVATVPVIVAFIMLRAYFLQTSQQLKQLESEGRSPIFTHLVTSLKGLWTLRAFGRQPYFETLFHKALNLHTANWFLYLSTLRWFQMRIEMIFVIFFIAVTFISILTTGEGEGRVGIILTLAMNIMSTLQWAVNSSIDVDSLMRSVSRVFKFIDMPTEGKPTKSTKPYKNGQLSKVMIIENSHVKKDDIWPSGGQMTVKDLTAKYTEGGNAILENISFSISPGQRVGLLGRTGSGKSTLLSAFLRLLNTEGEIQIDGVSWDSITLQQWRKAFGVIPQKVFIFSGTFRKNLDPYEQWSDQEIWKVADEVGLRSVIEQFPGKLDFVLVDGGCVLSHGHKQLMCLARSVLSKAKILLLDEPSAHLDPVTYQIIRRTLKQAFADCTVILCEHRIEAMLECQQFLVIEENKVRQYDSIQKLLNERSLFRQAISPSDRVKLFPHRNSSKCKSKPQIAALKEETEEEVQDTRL

Row | Compound | Emax [%] | EC50 [µM]
1 | Nc1cccc(NC(=O)c2c[nH]c3ccccc3c2=O)c1 [Compound 431, N-(3-aminophenyl)-4-oxo-1H-quinoline-3-carboxamide] | 25 to 100 | –
2 | CCC(=O)Nc1cccc(NC(=O)c2c[nH]c3ccccc3c2=O)c1 [Compound 81, 4-oxo-N-(3-propionylaminophenyl)-1H-quinoline-3-carboxamide] | < 25 | –
3 | O=C(Nc1ccccc1-c1cc2ccccc2[nH]1)c1c[nH]c2ccccc2c1=O [Compound 38, N-[2-(1H-indol-2-yl)phenyl]-4-oxo-1H-quinoline-3-carboxamide] | 25 to 100 | –
4 | O=C(Nc1ccc2c(c1)OC(F)(F)C(F)(F)O2)c1c[nH]c2ccccc2c1=O [Compound 440, N-(2,2,3,3-tetrafluoro-2,3-dihydrobenzo[b][1,4]dioxin-6-yl)-1,4-dihydro-4-oxoquinoline-3-carboxamide] | 25 to 100 | –
5 | Cc1ccc2[nH]cc(C(=O)Nc3cc(O)c(C4(C)CCCCC4)cc3F)c(=O)c2c1 [Compound 624, N-[2-fluoro-5-hydroxy-4-(1-methylcyclohexyl)-phenyl]-6-methyl-4-oxo-1H-quinoline-3-carboxamide] | 25 to 100 | –
6 | O=C(Nc1ccc(C(F)(F)F)c(O)c1)c1c[nH]c2ccccc2c1=O [Compound 506, N-[3-hydroxy-4-(trifluoromethyl)phenyl]-4-oxo-1H-quinoline-3-carboxamide] | 25 to 100 | –
7 | O=C(Nc1ccccc1-c1ccc(Oc2ccccc2)cc1)c1c[nH]c2ccccc2c1=O [Compound 410, 4-oxo-N-[2-(4-phenoxyphenyl)phenyl]-1H-quinoline-3-carboxamide] | > 100 | –
8 | CCc1cc(C(C)(C)C)c(O)cc1NC(=O)c1c[nH]c2cccc(O)c2c1=O [Compound 507, N-(2-ethyl-5-hydroxy-4-tert-butyl-phenyl)-5-hydroxy-4-oxo-1H-quinoline-3-carboxamide] | 25 to 100 | –
9 | CC1(c2cc(F)c(NC(=O)c3c[nH]c4cccc(O)c4c3=O)cc2O)CCCCC1 [Compound 287, N-[2-fluoro-5-hydroxy-4-(1-methylcyclohexyl)-phenyl]-5-hydroxy-4-oxo-1H-quinoline-3-carboxamide] | 25 to 100 | –
10 | COc1cc(NC(=O)c2c[nH]c3ccccc3c2=O)ccc1-n1c(C)ccc1C [Compound 560, N-[4-(2,5-dimethylpyrrol-1-yl)-3-methoxy-phenyl]-4-oxo-1H-quinoline-3-carboxamide] | 25 to 100 | –
11 | Cc1ccc(C(F)(F)F)cc1NC(=O)c1c[nH]c2ccc(F)cc2c1=O [Compound 678, 6-fluoro-N-[2-methyl-5-(trifluoromethyl)phenyl]-4-oxo-1H-quinoline-3-carboxamide] | 25 to 100 | –
12 | CCOc1ccc(NC(C)=O)cc1NC(=O)c1c[nH]c2ccccc2c1=O [Compound 132, N-(5-acetylamino-2-ethoxy-phenyl)-4-oxo-1H-quinoline-3-carboxamide] | < 25 | –
13 | CC(C)(C)CC(=O)Nc1ccc(C(C)(C)C)c(NC(=O)c2c[nH]c3ccccc3c2=O)c1 [Compound 196, N-[5-(3,3-dimethylbutanoylamino)-2-tert-butyl-phenyl]-4-oxo-1H-quinoline-3-carboxamide] | 25 to 100 | –
14 | O=C(Nc1ccc(Oc2cccnc2)cc1)c1c[nH]c2ccccc2c1=O [Compound 614, 4-oxo-N-[4-(3-pyridyloxy)phenyl]-1H-quinoline-3-carboxamide] | 25 to 100 | –
15 | CC(C)(C)OC(=O)NCc1cc(NC(=O)c2c[nH]c3ccccc3c2=O)ccc1C(C)(C)C [Compound 465, [5-[(4-oxo-1H-quinolin-3-yl)carbonylamino]-2-tert-butyl-phenyl]methylaminoformic acid tert-butyl ester] | 25 to 100 | –
16 | O=C(Nc1ccc(OC(F)(F)F)c(N2CCCCC2)c1)c1c[nH]c2ccccc2c1=O [Compound 696, 4-oxo-N-[3-(1-piperidyl)-4-(trifluoromethoxy)phenyl]-1H-quinoline-3-carboxamide] | 25 to 100 | –
17 | CN(C)[C@@H]1CCN(c2ccc(NC(=O)c3c[nH]c4ccccc4c3=O)c(C(F)(F)F)c2)C1 [Compound 534, (R)-N-(4-(3-(dimethylamino)pyrrolidin-1-yl)-2-(trifluoromethyl)phenyl)-4-oxo-1,4-dihydroquinoline-3-carboxamide] | 25 to 100 | –
18 | N#Cc1c[nH]c2cc(NC(=O)c3c[nH]c4ccccc4c3=O)ccc12 [Compound 339, N-(3-cyano-1H-indol-6-yl)-4-oxo-1H-quinoline-3-carboxamide] | 25 to 100 | –
19 | CCOc1ccccc1-c1ccccc1NC(=O)c1c[nH]c2ccccc2c1=O [Compound 344, N-[2-(2-ethoxyphenyl)phenyl]-4-oxo-1H-quinoline-3-carboxamide] | 25 to 100 | < 10
20 | O=C(Nc1cc2[nH]ccc2cc1F)c1c[nH]c2cccc(O)c2c1=O [Compound 596, N-(5-fluoro-1H-indol-6-yl)-5-hydroxy-4-oxo-1H-quinoline-3-carboxamide] | 25 to 100 | –
21 | CC(C)(C)c1cc(C(F)(F)F)c(NC(=O)c2c[nH]c3ccc(F)cc3c2=O)cc1O [Compound 509, 6-fluoro-N-[5-hydroxy-4-tert-butyl-2-(trifluoromethyl)phenyl]-4-oxo-1H-quinoline-3-carboxamide] | 25 to 100 | –

Row | Compound | Emax [%] | EC50 [µM]
22 | CC1CCN(c2ccccc2NC(=O)c2c[nH]c3ccccc3c2=O)CC1 [Compound 372, N-[2-(4-methyl-1-piperidyl)phenyl]-4-oxo-1H-quinoline-3-carboxamide] | 25 to 100 | –
23 | CCOc1cc(NC(=O)c2c[nH]c3ccccc3c2=O)c(OCC)cc1NC(=O)c1ccccc1 [Compound 7, N-(4-benzoylamino-2,5-diethoxy-phenyl)-4-oxo-1H-quinoline-3-carboxamide] | < 25 | –
24 | O=C(Nc1ccccc1)c1c[nH]c2cc(C(F)(F)F)ccc2c1=O [Compound 346, 4-oxo-N-phenyl-7-(trifluoromethyl)-1H-quinoline-3-carboxamide] | 25 to 100 | –
25 | O=C(Nc1cc(O)cc(C(F)(F)F)c1)c1c[nH]c2ccccc2c1=O [Compound 563, N-[3-hydroxy-5-(trifluoromethyl)phenyl]-4-oxo-1H-quinoline-3-carboxamide] | 25 to 100 | –
26 | CC(=O)c1ccccc1NC(=O)c1c[nH]c2ccccc2c1=O [Compound 365, N-(2-acetylphenyl)-4-oxo-1H-quinoline-3-carboxamide] | 25 to 100 | –
27 | Cc1cccc2[nH]cc(C(=O)Nc3ccc(N4CCCC(C)C4)cc3C(F)(F)F)c(=O)c12 (stereo not shown) [Compound 643, 5-methyl-N-[4-(3-methyl-1-piperidyl)-2-(trifluoromethyl)phenyl]-4-oxo-1H-quinoline-3-carboxamide] | 25 to 100 | –
28 | Cn1ccc2ccc(NC(=O)c3c[nH]c4ccccc4c3=O)cc21 [Compound 169, N-(1-methyl-1H-indol-6-yl)-4-oxo-1H-quinoline-3-carboxamide] | 25 to 100 | –
29 | CCOc1ccc2ncc(C(=O)Nc3ccc4cc[nH]c4c3)c(O)c2c1 [Compound 112, 6-ethoxy-4-hydroxy-N-(1H-indol-6-yl)quinoline-3-carboxamide] | 25 to 100 | –
30 | COc1ncccc1NC(=O)c1c[nH]c2ccccc2c1=O [Compound 15, N-(2-methoxy-3-pyridyl)-4-oxo-1H-quinoline-3-carboxamide] | 25 to 100 | –
31 | CC(=O)N1CCc2ccc(NC(=O)c3c[nH]c4ccccc4c3=O)cc21 [Compound 233, N-(1-acetylindolin-6-yl)-4-oxo-1H-quinoline-3-carboxamide] | < 25 | –
32 | Cn1cc(C(=O)Nc2ccccc2)c(=O)c2ccccc21 [Compound 468, 1-methyl-4-oxo-N-phenyl-1H-quinoline-3-carboxamide] | < 25 | –
33 | CC(C)(C)c1cc(C(C)(C)C)c(NC(=O)c2c[nH]c3ccc(O)cc3c2=O)cc1O [Compound 702, 6-hydroxy-N-(5-hydroxy-2,4-ditert-butyl-phenyl)-4-oxo-1H-quinoline-3-carboxamide] | 25 to 100 | –
34 | COC(=O)[C@@H]1C[C@@H](OC(C)(C)C)CN1c1ccc(NC(=O)c2c[nH]c3ccccc3c2=O)c(C(F)(F)F)c1 [Compound 550, (2S,4R)-methyl 4-tert-butoxy-1-(4-(4-oxo-1,4-dihydroquinoline-3-carboxamido)-3-(trifluoromethyl)phenyl)pyrrolidine-2-carboxylate] | 25 to 100 | –
35 | CC(C)(C)OC(=O)N1CCc2c(cccc2NC(=O)c2c[nH]c3ccccc3c2=O)C1 [Compound 427, 5-[(4-oxo-1H-quinolin-3-yl)carbonylamino]-1,2,3,4-tetrahydroisoquinoline-2-carboxylic acid tert-butyl ester] | 25 to 100 | –
36 | O=C(Nc1cc2ccccc2cn1)c1c[nH]c2ccccc2c1=O [Compound 309, N-(3-isoquinolyl)-4-oxo-1H-quinoline-3-carboxamide] | < 25 | –
37 | COc1cc2c(=O)c(C(=O)Nc3cc4[nH]ccc4cc3C(C)(C)C)c[nH]c2cc1F [Compound 611, 7-fluoro-6-methoxy-4-oxo-N-(5-tert-butyl-1H-indol-6-yl)-1H-quinoline-3-carboxamide] | > 100 | –
38 | O=C(Nc1ccc2c(c1)OC(F)(F)O2)c1c[nH]c2ccccc2c1=O [Compound 66, N-(2,2-difluorobenzo[1,3]dioxol-5-yl)-4-oxo-1H-quinoline-3-carboxamide] | 25 to 100 | –
39 | CCC(CC)(c1cc(F)c(NC(=O)c2cnc3ccccc3c2O)cc1O)C(C)(C)C [Compound 153, N-[4-(1,1-diethyl-2,2-dimethyl-propyl)-2-fluoro-5-hydroxy-phenyl]-4-hydroxy-quinoline-3-carboxamide] | 25 to 100 | –
40 | O=C(Nc1ccc(C2CCCCC2)c(O)c1)c1c[nH]c2ccc(F)cc2c1=O [Compound 651, N-(4-cyclohexyl-3-hydroxy-phenyl)-6-fluoro-4-oxo-1H-quinoline-3-carboxamide] | 25 to 100 | –
41 | Cc1ccc(C#N)c(NC(=O)c2c[nH]c3ccccc3c2=O)c1 [Compound 89, N-(2-cyano-5-methyl-phenyl)-4-oxo-1H-quinoline-3-carboxamide] | < 25 | –
42 | CC(C)(C)c1ccc(NC(=O)c2c[nH]c3ccccc3c2=O)cc1N1CCCCC1 [Compound 510, 4-oxo-N-[3-(1-piperidyl)-4-tert-butyl-phenyl]-1H-quinoline-3-carboxamide] | 25 to 100 | –
